Publication PMC6914789 (Scientific Reports, 2019)

Assays:
Sirt1 = target: T1, Sirt1 (Homo sapiens, UniProt Q96EB6); test: MS deacetylation assay with acetyl-p53 peptide; format: biochemical
T1 construct: Full length human Sirt1
T1 sequence (Q96EB6 2-747): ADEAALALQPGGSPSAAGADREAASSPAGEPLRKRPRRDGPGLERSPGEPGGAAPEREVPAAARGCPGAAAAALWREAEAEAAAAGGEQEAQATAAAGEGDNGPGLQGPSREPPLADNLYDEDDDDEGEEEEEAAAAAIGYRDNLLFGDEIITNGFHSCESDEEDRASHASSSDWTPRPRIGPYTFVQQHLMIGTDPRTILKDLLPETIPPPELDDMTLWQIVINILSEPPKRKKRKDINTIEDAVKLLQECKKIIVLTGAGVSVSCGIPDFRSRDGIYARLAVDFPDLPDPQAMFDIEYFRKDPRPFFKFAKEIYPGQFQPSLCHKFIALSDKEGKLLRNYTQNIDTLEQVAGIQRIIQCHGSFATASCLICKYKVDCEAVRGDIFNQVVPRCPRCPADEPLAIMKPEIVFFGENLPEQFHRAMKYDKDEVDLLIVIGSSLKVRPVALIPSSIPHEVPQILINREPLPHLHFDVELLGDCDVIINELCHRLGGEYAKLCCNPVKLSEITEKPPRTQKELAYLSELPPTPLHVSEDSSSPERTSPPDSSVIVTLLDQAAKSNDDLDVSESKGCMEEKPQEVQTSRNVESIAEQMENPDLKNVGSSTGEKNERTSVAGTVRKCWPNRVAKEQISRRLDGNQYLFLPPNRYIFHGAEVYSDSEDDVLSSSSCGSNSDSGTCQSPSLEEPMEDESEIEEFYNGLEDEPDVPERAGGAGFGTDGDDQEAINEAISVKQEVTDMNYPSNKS

Sirt3 = target: T2, Sirt3 (Homo sapiens, UniProt Q9NTG7); test: MS deacetylation assay with acetyl-ACS2 peptide; format: biochemical
T2 construct: residues 118–399
T2 sequence (Q9NTG7 118-399): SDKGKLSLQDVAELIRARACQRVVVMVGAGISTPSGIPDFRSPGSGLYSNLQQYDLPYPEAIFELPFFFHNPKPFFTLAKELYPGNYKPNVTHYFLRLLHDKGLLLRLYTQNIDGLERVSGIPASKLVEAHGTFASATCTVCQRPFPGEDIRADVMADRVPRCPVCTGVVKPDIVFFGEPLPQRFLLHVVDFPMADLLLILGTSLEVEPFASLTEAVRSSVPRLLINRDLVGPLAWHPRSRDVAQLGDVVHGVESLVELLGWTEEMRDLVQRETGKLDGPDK

Sirt5 = target: T3, Sirt5 (Homo sapiens, UniProt Q9NXA8); test: MS desuccinylation assay with succinyl-CPS1 peptide; format: biochemical
T3 construct: residues 34–302
T3 sequence (Q9NXA8 34-302): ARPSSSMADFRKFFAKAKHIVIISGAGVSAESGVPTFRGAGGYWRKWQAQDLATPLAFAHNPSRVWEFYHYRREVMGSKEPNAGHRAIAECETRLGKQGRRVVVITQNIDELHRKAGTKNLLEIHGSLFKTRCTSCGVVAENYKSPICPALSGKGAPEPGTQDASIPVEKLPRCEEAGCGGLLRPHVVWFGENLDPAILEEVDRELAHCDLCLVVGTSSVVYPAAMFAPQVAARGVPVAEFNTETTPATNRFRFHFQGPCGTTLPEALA

Sirt6 [1] = target: T4, Sirt6 (Homo sapiens, UniProt Q8N6T7); test: crystal structure ([…] Å in Table […]); MS deacetylation assay (activation); format: binding
T4 construct: Sirt6(13–308) for crystals; Sirt6(1-355) for activity
T4 sequence (Q8N6T7 whole entry): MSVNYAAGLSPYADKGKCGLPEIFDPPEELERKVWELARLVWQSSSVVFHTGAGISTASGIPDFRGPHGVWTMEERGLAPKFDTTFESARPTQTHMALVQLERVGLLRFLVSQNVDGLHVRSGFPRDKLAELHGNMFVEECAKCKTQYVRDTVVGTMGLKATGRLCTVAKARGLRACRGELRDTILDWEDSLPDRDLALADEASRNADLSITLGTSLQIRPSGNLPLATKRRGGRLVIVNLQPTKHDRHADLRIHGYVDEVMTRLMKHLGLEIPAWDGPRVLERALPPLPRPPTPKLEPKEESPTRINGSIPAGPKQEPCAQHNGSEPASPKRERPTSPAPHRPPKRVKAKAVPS

Sirt6 [2] = target: T4, Sirt6; test: crystal structure at […] Å; MS deacetylation assay (activation at […]); format: binding

## O=c1c(O)c(-c2ccc(O)c(O)c2)oc2cc(O)cc(O)c12 [compound 1, quercetin]
Sirt1
  MS deacetylation assay with acetyl-p53 peptide: Quercetin caused a concentration-dependent inhibition of all Sirtuin isoforms except for Sirt6
Sirt3
  MS deacetylation assay with acetyl-ACS2 peptide: Quercetin caused a concentration-dependent inhibition of all Sirtuin isoforms except for Sirt6
Sirt5
  MS desuccinylation assay with succinyl-CPS1 peptide: Quercetin caused a concentration-dependent inhibition of all Sirtuin isoforms except for Sirt6

## O=c1c(O[C@@H]2O[C@H](CO)[C@@H](O)[C@H](O)[C@H]2O)c(-c2ccc(O)c(O)c2)oc2cc(O)cc(O)c12 [compound 4, isoquercetin]
Sirt6 [1]
  crystal structure (1.90 Å in Table 1); MS deacetylation assay (activation): we determined a crystal structure of a Sirt6/ADP-ribose/isoquercetin complex

## Oc1cc(O)c2cc(O)c(-c3ccc(O)c(O)c3)[o+]c2c1 [compound 6, cyanidin]
Sirt6 [2]
  crystal structure at 2.10 Å; MS deacetylation assay (activation at 20-80 μM): we solved a crystal structure of a Sirt6/ADP-ribose/cyanidin complex
